Assay results from ChEMBL document CHEMBL3217590, “Discovery of a new class of dithiocarbamates and rhodanine scaffolds as potent antifungal agents: synthesis, biology and molecular docking” (Medchemcomm, 2012).
In brackets after ≈: the same amount, converted by molar mass.

Assays:
[1] = tested on: Trichophyton mentagrophytes; test: Antifungal activity against Trichophyton mentagrophytes after 72 to 96 hrs by broth microdilution technique; type: functional
Candida parapsilosis = test: Antifungal activity against Candida parapsilosis ATCC22019 after 24 to 48 hrs by broth microdilution technique; type: functional; details: Lodderomyces parapsilosis
Candida albicans [2] = test: Antifungal activity against Candida albicans after 24 to 48 hrs by broth microdilution technique; type: functional
Cryptococcus neoformans = test: Antifungal activity against Cryptococcus neoformans after 24 to 48 hrs by broth microdilution technique; type: functional
Aspergillus fumigatus = test: Antifungal activity against Aspergillus fumigatus after 72 to 96 hrs by broth microdilution technique; type: functional
Sporothrix schenckii = test: Antifungal activity against Sporothrix schenckii after 72 to 96 hrs by broth microdilution technique; type: functional
Candida albicans [3] = test: Anticandidal activity against Candida albicans ATCC10231 after 24 to 48 hrs by broth microdilution technique; type: functional
Candida albicans [4] = test: Anticandidal activity against Candida albicans CDRI after 24 to 48 hrs by broth microdilution technique; type: functional
Candida albicans [5] = test: Ratio of fluconazole MIC to compound MIC against amphotericin-B resistant Candida albicans after 24 to 48 hrs by broth microdilution technique; type: functional
Candida albicans [6] = test: Anticandidal activity against Candida albicans isolated from patient after 24 to 48 hrs by broth microdilution technique; type: functional
Candida albicans [7] = test: Anticandidal activity against amphotericin-B resistant Candida albicans after 24 to 48 hrs by broth microdilution technique; type: functional
Candida albicans [8] = test: Anticandidal activity against Candida albicans ATCC750 after 24 to 48 hrs by broth microdilution technique; type: functional
Candida albicans [9] = test: Anticandidal activity against Candida albicans MTCC183 after 24 to 48 hrs by broth microdilution technique; type: functional
Candida albicans [10] = test: Anticandidal activity against Candida albicans ATCC14053 after 24 to 48 hrs by broth microdilution technique; type: functional
Candida albicans [11] = test: Anticandidal activity against Candida albicans ATCC-MYA 2950 after 24 to 48 hrs by broth microdilution technique; type: functional
L929 [12] = test: Cytotoxicity against mouse L929 cells assessed as morphological changes up to 3.12 ug/ml after 24 hrs by giemsa staining based phase contrast microscopy; type: cell-based; details: l929, 24 h
L929 [13] = test: Cytotoxicity against mouse L929 cells assessed as decline in cell survival at 12.5 to 50 ug/ml after 24 hrs by spectrophotometric analysis; type: cell-based; details: l929, 24 h

| SMILES | MIC [1] | MIC (Candida parapsilosis) | MIC (Candida albicans [2]) | MIC (Cryptococcus neoformans) | MIC (Aspergillus fumigatus) | MIC (Sporothrix schenckii) | MIC (Candida albicans [3]) | MIC (Candida albicans [4]) | Ratio (Candida albicans [5]) | MIC (Candida albicans [6]) | MIC (Candida albicans [7]) | MIC (Candida albicans [8]) | MIC (Candida albicans [9]) | MIC (Candida albicans [10]) | MIC (Candida albicans [11]) | Activity (L929 [12]) | Activity (L929 [13]) |
| --- | --- | --- | --- | --- | --- | --- | --- | --- | --- | --- | --- | --- | --- | --- | --- | --- | --- |
| COc1ccc(/C=C2\SC(=S)N(Cc3ccncc3)C2=O)cc1OC | > 50 mg/L | 25 mg/L (≈ 67.1 µM) | 25 mg/L (≈ 67.1 µM) | 50 mg/L (≈ 134 µM) | > 50 mg/L | > 50 mg/L |  |  |  |  |  |  |  |  |  |  |  |
| O=C1/C(=C/c2cccnc2)SC(=S)N1Cc1ccncc1 | 6.25 mg/L (≈ 19.9 µM) | 6.25 mg/L (≈ 19.9 µM) | 1.56 mg/L (≈ 4.98 µM) | 3.12 mg/L (≈ 9.96 µM) | 25 mg/L (≈ 79.8 µM) | 1.56 mg/L (≈ 4.98 µM) | 3.12 mg/L (≈ 9.96 µM) | 1.56 mg/L (≈ 4.98 µM) | 1 | 3.12 mg/L (≈ 9.96 µM) | 6.25 mg/L (≈ 19.9 µM) | 3.12 mg/L (≈ 9.96 µM) | 0.78 mg/L (≈ 2.49 µM) | 0.78 mg/L (≈ 2.49 µM) | 1.56 mg/L (≈ 4.98 µM) |  |  |
| O=C1/C(=C/c2cc3c(cc2[N+](=O)[O-])OCO3)SC(=S)N1Cc1ccncc1 | 3.12 mg/L (≈ 7.77 µM) | 3.12 mg/L (≈ 7.77 µM) | 0.78 mg/L (≈ 1.94 µM) | 3.12 mg/L (≈ 7.77 µM) | > 50 mg/L | 1.56 mg/L (≈ 3.89 µM) | 3.12 mg/L (≈ 7.77 µM) | 3.12 mg/L (≈ 7.77 µM) |  | 1.56 mg/L (≈ 3.89 µM) | 12.5 mg/L (≈ 31.1 µM) | 6.25 mg/L (≈ 15.6 µM) | 3.12 mg/L (≈ 7.77 µM) | 1.56 mg/L (≈ 3.89 µM) | 1.56 mg/L (≈ 3.89 µM) | Non-toxic | Toxic |
| O=C1/C(=C/c2ccco2)SC(=S)N1Cc1ccncc1 | 12.5 mg/L (≈ 41.3 µM) | 50 mg/L (≈ 165 µM) | 3.12 mg/L (≈ 10.3 µM) | 25 mg/L (≈ 82.7 µM) | > 50 mg/L | 3.12 mg/L (≈ 10.3 µM) |  | 25 mg/L (≈ 82.7 µM) | 1 |  | 6.25 mg/L (≈ 20.7 µM) |  | 3.12 mg/L (≈ 10.3 µM) | 1.56 mg/L (≈ 5.16 µM) | 6.25 mg/L (≈ 20.7 µM) | Non-toxic | Toxic |
| O=C1/C(=C/c2cccc3ccccc23)SC(=S)N1Cc1ccncc1 | 25 mg/L (≈ 69 µM) | 50 mg/L (≈ 138 µM) | 25 mg/L (≈ 69 µM) | 50 mg/L (≈ 138 µM) | > 50 mg/L | 12.5 mg/L (≈ 34.5 µM) |  |  |  |  |  |  |  |  |  |  |  |
| O=C1/C(=C/c2ccc(/C=C3\SC(=S)N(Cc4ccncc4)C3=O)cc2)SC(=S)N1Cc1ccncc1 | > 50 mg/L | > 50 mg/L | > 50 mg/L | > 50 mg/L | > 50 mg/L | > 50 mg/L |  |  |  |  |  |  |  |  |  |  |  |
| O=C1/C(=C/c2ccc(OCCOc3ccc(/C=C4\SC(=S)N(Cc5ccncc5)C4=O)cc3)cc2)SC(=S)N1Cc1ccncc1 | > 50 mg/L | > 50 mg/L | > 50 mg/L | > 50 mg/L | > 50 mg/L | > 50 mg/L |  |  |  |  |  |  |  |  |  |  |  |
| O=C1/C(=C/c2ccc(OCCCOc3ccc(/C=C4\SC(=S)N(Cc5ccncc5)C4=O)cc3)cc2)SC(=S)N1Cc1ccncc1 | > 50 mg/L | > 50 mg/L | > 50 mg/L | > 50 mg/L | > 50 mg/L | > 50 mg/L |  |  |  |  |  |  |  |  |  |  |  |
| O=C1/C(=C/c2ccc(OCCCCOc3ccc(/C=C4\SC(=S)N(Cc5ccncc5)C4=O)cc3)cc2)SC(=S)N1Cc1ccncc1 | > 50 mg/L | > 50 mg/L | > 50 mg/L | > 50 mg/L | > 50 mg/L | > 50 mg/L |  |  |  |  |  |  |  |  |  |  |  |
| O=C1/C(=C/c2ccc(OCCCCCOc3ccc(/C=C4\SC(=S)N(Cc5ccncc5)C4=O)cc3)cc2)SC(=S)N1Cc1ccncc1 | > 50 mg/L | > 50 mg/L | > 50 mg/L | > 50 mg/L | > 50 mg/L | > 50 mg/L |  |  |  |  |  |  |  |  |  |  |  |
| Clc1ccccc1C(c1ccccc1)(c1ccccc1)n1ccnc1 [CLOTRIMAZOLE] | 2 mg/L (≈ 5.8 µM) | 0.5 mg/L (≈ 1.45 µM) | 0.25 mg/L (≈ 0.725 µM) | 0.25 mg/L (≈ 0.725 µM) | 2 mg/L (≈ 5.8 µM) | 4 mg/L (≈ 11.6 µM) |  |  |  |  |  |  |  |  |  |  |  |
| OC(Cn1cncn1)(Cn1cncn1)c1ccc(F)cc1F [FLUCONAZOLE] | 16 mg/L (≈ 52.2 µM) | 0.5 mg/L (≈ 1.63 µM) | 1 mg/L (≈ 3.27 µM) | 2 mg/L (≈ 6.53 µM) | > 32 mg/L | 4 mg/L (≈ 13.1 µM) | 1 mg/L (≈ 3.27 µM) | 0.125 mg/L (≈ 0.408 µM) |  | 0.25 mg/L (≈ 0.816 µM) | 8 mg/L (≈ 26.1 µM) | 0.5 mg/L (≈ 1.63 µM) | 4 mg/L (≈ 13.1 µM) | 0.25 mg/L (≈ 0.816 µM) | 0.062 mg/L (≈ 0.202 µM) |  |  |
